In patent publication US12214036B2, “Combination therapy comprising AXL/MER and PD-1/PD-L1 inhibitors” (Incyte Corporation, priority 2020, dated 2025):

Legend:
[1] = test system: macrophage-mediated suppression of T-cell proliferation; assay: Macrophage suppression of T-cell proliferation assay; assay type: cell-based, human
Method: To examine the functional activity of Compound 1, the effects on macrophage-mediated suppression of T-cell proliferation were evaluated.
Human PBMCs were isolated from the peripheral blood of healthy donors by density gradient centrifugation on Ficoll-Hypaque (GE Healthcare, Chicago, Ill.; #17-1440-02) followed by purification with anti-CD14 Microbeads (Miltenyi Biotec; #130-050-201). Isolated CD14^+ monocytes/macrophages were incubated with 100 ng/mL M-CSF (R&D Systems; #216-MC) and 50 ng/mL TGFβ1 (R&D Systems; #240-B) at 37° C. for 6 days; 100 μL/well of CD14^+ macrophages were seeded at 0.5×10^6 cells/mL in a 96-well round-bottomed culture plate (Costar; #3799) and treated with Compound 1 overnight at 37° C. CD4^+CD25^− effector T (Teff) cells were isolated using the Dynabeads regulatory CD4^+CD25^+ T-cell kit (Life Technologies; #11363D) and the Teff cells were labeled with carboxyfluorescein succinimidyl ester (CFSE) using the CellTrace CFSE Cell Proliferation kit (ThermoFisher Scientific; #C34554). […] Teff cells were analyzed by a flow cytometer (BD LSRFortessa X-20, BD Biosciences, San Jose, Calif.) and the cell-free supernatant was tested in the Luminex assay (Millipore; #HCYTOMAG-60K_38plex) to measure the concentrations of different cytokines and chemokines.

[2] = test system: 4T1 tumor; assay: Tumor models in immunodeficient mice; assay type: in vivo, athymic nude mice; settings: immunodeficient mice bearing the same tumors, FIG. 7C
Source text: (§1) MBT-2 cells were obtained from the Japanese Collection of Research Bioresources Cell Bank and were maintained in DMEM supplemented with 10% FBS. MC38 cells were obtained from the NCI. 4T1 cells were obtained from ATCC and maintained in RPMI media supplemented with 10% FBS. For MBT-2 experiments, 5×10^5 MBT-2 cells were inoculated subcutaneously into the right hind flank of 6- to 8-week-old C3H mice or athymic nude mice (Charles River Laboratories, Wilmington, Mass.). For MC38 studies, 12-week old female C57BL/6 mice were inoculated with brei of MC38 tumors (in-vivo passage 6) into the right hind flank. For 4T1 studies, 7.5×10^5 4 T1 cells were inoculated subcutaneously into the right hind flank of 6- to 8-week-old female BALB/c mice or athymic nude mice (Charles River Laboratories). Mice were randomized by tumor volume with n=10-12 per group. […] Mice were monitored for tumor growth and overt tolerability over the course of the experiment. […] Tumor volume was calculated using the formula (L×W^2)/2, where L and W refer to the length and width dimensions, respectively. Tumor growth inhibition (TGI) was calculated using the formula (1−(VT/VC))×100, where VT is the tumor volume of the treatment group on the last day of treatment, and VC is the tumor volume of the control group on the last day of treatment. […]

[3] = test system: 179 kinases (c-Met); assay: Comprehensive kinase study (179 kinases); assay type: biochemical; settings: evaluated at 200 nM
Method: Compound 1 was also evaluated at 200 nM in a comprehensive kinase study, which included 179 kinases. […] The mode of inhibition with respect to ATP concentration was evaluated using a MER kinase assay.

[4] = test system: MBT-2 tumor; assay: MBT-2 syngeneic tumor model; assay type: in vivo; settings: MBT-2 in C3H mice, oral BID, FIG. 7A
Method: To test potential immunomodulatory activity of Compound 1 in vivo, antitumor efficacy studies were performed in syngeneic tumor models.
as §1, with “Laboratories).” for “Laboratories). Mice were randomized by tumor volume with n=10-12 per group.”

[5] = test system: CTG-2426 tumors; assay: PDX model CTG-2426 (myxofibrosarcoma); assay type: in vivo; settings: athymic nude mice
Source text: as §1, with “Laboratories).” for “Laboratories). Mice were randomized by tumor volume with n=10-12 per group.”
The activity of Compound 1 in sarcoma PDX models was evaluated as described in Example H for PDX models. […] Three mice per group were analyzed. […]

Structure (SMILES): CC(C)C(=O)N1CCC(c2cc(-c3ccc(NC(=O)c4cn(C(C)C)c(=O)n(-c5ccccn5)c4=O)cc3)c3c(N)ncnn23)CC1 [Compound 1, N-(4-(4-Amino-7-(1-isobutyrylpiperidin-4-yl)pyrrolo[1,2-f][1,2,4]triazin-5-yl)phenyl)-1-isopropyl-2,4-dioxo-3-(pyridin-2-yl)-1,2,3,4-tetrahydropyrimidine-5-carboxamide]
- effect on macrophage-mediated suppression of T-cell proliferation ([1]; FIG. 5A): partially reversed macrophage-mediated suppression of T-cell proliferation
- IFN-γ production ([1]; macrophage/T-cell co-culture supernatant, FIG. 5B): increase in IFN-γ production
- antitumor activity in immunodeficient mice [2]: no activity
- inhibition of other kinases [3]: did not inhibit any other kinases
- selectivity for AXL and MER compared to c-Met [3]: approximately 60 fold
- antitumor efficacy (tumor volume) [4]: dose-dependent efficacy
- TGI (%) [5]: 42%
